Experimental data from publication PMC8179049 (Chemical Science, 2020).
“And” between values parts separate entries of the source, which are not always exact repeats. Equal values may be shown once. Read-outs that look alike come from different tables or passages of the source.

What was measured:
[1] = molecular target: T1, human AspH (His6-AspH315-758) (Homo sapiens, UniProt Q12797); assay: SPE-MS AspH inhibition assay; format: biochemical; details: mean ± SD, n = 3
T1 construct: N-Terminally His6-tagged human AspH315-758 (His6-AspH315-758) was produced in Escherichia coli BL21 (DE3); made in house; host or cells: Escherichia coli BL21 (DE3), pET-28a(+) vector
T1 sequence (Q12797 315-758): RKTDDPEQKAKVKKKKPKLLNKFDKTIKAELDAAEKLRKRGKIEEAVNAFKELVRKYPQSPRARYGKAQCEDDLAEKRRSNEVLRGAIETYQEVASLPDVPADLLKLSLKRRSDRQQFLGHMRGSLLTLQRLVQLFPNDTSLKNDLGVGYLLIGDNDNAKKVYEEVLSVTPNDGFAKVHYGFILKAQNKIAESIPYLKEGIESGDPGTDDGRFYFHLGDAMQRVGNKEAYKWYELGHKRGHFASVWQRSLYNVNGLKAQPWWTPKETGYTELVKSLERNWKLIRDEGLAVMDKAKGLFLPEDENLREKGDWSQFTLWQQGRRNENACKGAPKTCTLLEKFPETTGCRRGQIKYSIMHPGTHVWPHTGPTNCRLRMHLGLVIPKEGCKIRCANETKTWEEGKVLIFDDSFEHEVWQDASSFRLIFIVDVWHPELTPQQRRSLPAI
Experimental: 6. Recombinant AspH production and purification
N-Terminally His6-tagged human AspH315-758 (His6-AspH315-758) was produced in Escherichia coli BL21 (DE3) cells using a pET-28a(+) vector and purified by Ni(II)-affinity chromatography (HisTrap HP column, GE Healthcare; 1 mL/min flow rate) and size-exclusion chromatography (HiLoad 26/60 Superdex 75 pg 300 mL column; 1 mL/min) using an ÄKTA pure machine (GE Healthcare) as previously reported.1,4 AspH was >95% pure by SDS-PAGE and MS analysis and had the anticipated mass (calculated for His6-AspH315-758: 54519 Da, found: 54519 Da).1 Purified AspH was stored in 50 mM HEPES buffer (pH 7.5, 150 mM NaCl) at a concentration of 125 μM at -78 °C; fresh aliquots were used for all AspH assays.
7. AspH substrate synthesis
AspH substrates were designed based on the sequence of EGFD1 of human coagulation factor X (hFX amino acids 86-124), which is a reported cellular AspH substrate.2 All substrates were prepared with a C-terminal amide.
The hFX-EGFD186-124-4Ser peptide (hFX amino acids 86-124; Supporting Figure S1c),1 used for crystallography experiments, was synthesized by solid phase peptide synthesis (SPPS) and purified by GL Biochem (Shanghai) Ltd (Shanghai, China). The thioether linked cyclic peptide hFX-CP101-119 (hFX amino acids 101-119; Supporting
Figure S1d), which was used as substrate in AspH SPE-MS assays,4 was synthesized by an intramolecular thioetherification cyclization reaction from the corresponding linear peptide (D-Ala replacing Cys101hFX and Ser replacing Cys112hFX) which was obtained by microwave-assisted solid phase peptide synthesis using the Fmoc-protection strategy as described.4
8. AspH inhibition assays […]
water; ammonium iron(II) sulfate hexahydrate, FAS, (NH 4)2Fe(SO4)2·6H2O: 400 mM in 20 mM HCl diluted to 1 mM in Milli-Q® Ultrapure water) were freshly prepared each day from commercially sourced solids (Sigma […]
(Greiner) in an approximately three-fold and 11-point dilution series (100 μM top concentration) using an ECHO 550 acoustic dispenser (Labcyte). DMSO and 2,4 -PDCA were used as negative and positive controls , respectively .
The final DMSO concentration was kept constant at 0.5%v/v throughout all experiments (using the DMSO backfill option of the acoustic dispenser). Each reaction was performed in technical duplicates in adjacent wells of the assay plates; additionally, assays were performed in three independent technical duplicates on different days using different DMSO inhibitor solutions. […]
dispensed across the inhibitor-containing 384-well assay plates with a multidrop dispenser (ThermoFischer Scientific) at 20°C under an ambient atmosphere. The plates were subsequently centrifuged (1000 rpm, 30 s) and incubated for 15 minutes at 20°C. The Substrate Mixture (25 μL/well), containing 2.0 μM hFX-CP101-119, 200 μM […]
Note: The multidrop dispenser ensured proper mixing of the Enzyme and the Substrate Mixtures which was essential for assay reproducibility. The plates were centrifuged (1000 rpm, 30 s) and af ter incubating for 7 minutes, […]
centrifuged (1000 rpm, 60 s) and analysed by MS.
The mass spectrometer parameters were:
Data were exported into Microsoft
The standard deviation (SD) of three
Z’-factors were calculated
9. Determination of kinetic parameters […]
in 50 mM HEPES buffer (pH 7.5).

[2] = molecular target: T2, human AspH (Homo sapiens, UniProt Q12797); assay: SPE-MS AspH turnover assay in the absence of 2OG (2OG derivative as cosubstrate); details: 330 μM 2OG or 2OG derivative, 0.1 μM AspH, 2 μM hFX-CP101-119, 50 μM FAS, t = 15 min;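 note: percent conversion = hydroxylated cyclic peptide peak area relative to summed substrate plus product areas, taken from +2 charge state ion chromatograms by solid phase extraction MS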
T2 sequence (Q12797 315-758): T1 sequence (Q12797 315-758)
Experimental: AspH assays were performed as described in the ESI, ^† data are shown as the mean of three independent runs (n = 3; mean ± standard deviation, SD).
AspH assays were performed as described in Section 9 of the Supporting Information using 0.1 μM AspH, 2 μM
a positive control in the SPE-MS AspH turnover assays (Entry 1).
dependent conversion of the AspH substrate hFX-CP101-119 (Supporting Figure S1d). %-Substrate conversion is
AspH assays were performed as
described in Section 9 of the Supporting Information using 0.1 μM AspH, 2 μM hFX-CP101-119, 50 μM FAS, 330
AspH inhibition assays were incubated for 6 rather than 7 minutes before the enzyme reaction was
stopped by the addition of 10%v/v aqueous formic acid.
MS-analyses were performed using a RapidFire RF 365 high-throughput sampling robot (Agilent) attached to an
iFunnel Agilent 6550 accurate mass quadrupole time-of-flight (Q-TOF) mass spectrometer operated in the positive
ionization mode. Assay samples were aspirated under vacuum for 0.4 s and loaded onto a C4 solid phase extraction (SPE) cartridge. After loading, the C4 SPE cartridge was washed with 0.1%v/v aqueous formic acid to remove
non-volatile buffer salts (5 s, 1.5 mL/min). The peptide was eluted from the SPE cartridge with 0.1%v/v aqueous
formic acid in 85/15v/v acetonitrile/water into the mass spectrometer (5 s, 1.25 mL/min) and the SPE cartridge re-
equilibrated with 0.1%v/v aqueous formic acid (1 s, 1.25 mL/min). The mass spectrometer parameters were:
capillary voltage (4000 V), nozzle voltage (1000 V), fragmentor voltage (365 V), gas temperature (280°C), gas
flow (13 L/min), sheath gas temperature (350°C), sheath gas flow (12 L/min). The m/z +2 charge states of the
cyclic peptide (substrate) and the hydroxylated cyclic peptide (product) were used to extract ion chromatogram
data, peak areas were integrated using RapidFire Integrator software (Agilent). Data were exported into Microsoft
Excel and used to calculate the % conversion of the hydroxylation reaction using the equation: % conversion =
100 x (integral product cyclic peptide) / (integral substrate cyclic peptide + integral product cyclic peptide).
Normalized dose-response curves (2,4-PDCA and DMSO controls) were obtained from the raw data by non-linear
regression (GraphPad Prism 5) and used to determine IC50-values. The standard deviation (SD) of three
independent IC50 determinations (n = 3) was calculated using GraphPad Prism 5. Z’-factors were calculated
according to the cited literature using Microsoft Excel (Supporting Figure S3).14

[3] = 50 nM His6-AspH315–758, 1.0 μM hFX-CP101–119, 3 μM 2OG, read-out: IC50 (inhibition of AspH)
[4] = 50 nM His6-AspH315-758, 1.0 μM hFX-CP101-119, read-out: IC50 (ESI Fig. S4)
[5] = IC50 at 200 μM 2OG (ESI Table S1), assay concentration of 200 μM 2OG
[6] = IC50 at 400 μM 2OG (ESI Table S1), assay concentration of 400 μM 2OG
[7] = IC50 at 600 μM 2OG (ESI Table S1), assay concentration of 600 μM (0.6 mM) 2OG
[8] = 50 nM His6-AspH315–758, 1.0 μM hFX-CP101–119, 3 μM 2OG

| SMILES | IC50 [1, 3] | AspH-catalyzed substrate conversion (hydroxylation of hFX-CP101-119) [2] | melting point | IC50 (inhibition of AspH) [1, 8] | other results |
| --- | --- | --- | --- | --- | --- |
| O=C(O)C(=O)[C@@H]1[C@@H](C(=O)O)[C@@H]2C=C[C@H]1C2 (racemic) [compound 36] | ~19.3 µM and 19.3 µM | < 1% |  |  |  |
| O=C(O)CNC(=O)C(=O)O [NOG, N-oxalylglycine, reference compound] | ~1 µM |  |  |  | IC50 [1, 4]: 0.99 ± 0.31 µM |
| CCC(CC(=O)O)C(=O)C(=O)O (stereo not shown) [compound 17, 3-ethyl-2OG] | ~1.2 µM and 1.2 µM | < 1% |  |  | IC50 [1, 5]: 22.4 ± 3.2 µM; IC50 [1, 6]: 35.3 ± 9.9 µM; IC50 [1, 7]: 54.9 ± 10.8 µM |
| CCCC(CC(=O)O)C(=O)C(=O)O (stereo not shown) [compound 18] | ~5.7 µM and 5.7 µM | < 1% |  |  |  |
| CC(C)(C)CCC(CC(=O)O)C(=O)C(=O)O (stereo not shown) [compound 19] | ~48.2 µM and 48.2 µM | < 1% |  |  |  |
| O=C(O)CC(CCCc1ccccc1)C(=O)C(=O)O (stereo not shown) [compound 20] | ~6.8 µM and 6.8 µM | < 1% | > 220 °C (dec.) |  |  |
| O=C(O)CC(Cc1ccccc1)C(=O)C(=O)O (stereo not shown) [compound 21] | ~1.6 µM and 1.6 µM | < 1% | > 250 °C (dec.) |  |  |
| O=C(O)CC(Cc1ccc(F)cc1)C(=O)C(=O)O (stereo not shown) [compound 22] | 2.6 ± 0.8 µM | < 1% | > 250 °C (dec.) |  |  |
| O=C(O)CC(Cc1ccc(OC(F)(F)F)cc1)C(=O)C(=O)O (stereo not shown) [compound 23] | 6.3 ± 2.6 µM | < 1% | > 260 °C (dec.) |  |  |
| COc1ccc(CC(CC(=O)O)C(=O)C(=O)O)cc1 (stereo not shown) [compound 24] | 3.6 ± 1.4 µM | < 1% | > 260 °C (dec.) |  |  |
| Cc1cc(C)cc(CC(CC(=O)O)C(=O)C(=O)O)c1 (stereo not shown) [compound 25] | 4.7 ± 0.2 µM | < 1% |  |  |  |
| CC(CC(=O)C(=O)O)C(=O)O (stereo not shown) [compound 26, 4-methyl-2OG] |  | ~10% |  | did not inhibit | IC50 (inhibition of AspH) ([1]; 50 nM His6-AspH315–758, 1.0 μM hFX-CP101–119, 3 μM 2OG, listed as C00031): Inactive |
| CCC(CC(=O)C(=O)O)C(=O)O (stereo not shown) [compound 27] | 0.61 ± 0.09 µM | < 1% |  |  |  |
| CCCC(CC(=O)C(=O)O)C(=O)O (stereo not shown) [compound 28] | 0.47 ± 0.08 µM | < 1% |  |  |  |
| CC(C)CC(CC(=O)C(=O)O)C(=O)O (stereo not shown) [compound 29] | 0.51 ± 0.12 µM | < 1% |  |  | IC50 [1, 5]: 10.8 ± 2.7 µM; IC50 [1, 6]: 16.8 ± 2.5 µM; IC50 [1, 7]: 26.9 ± 7 µM |
| CC(C)(C)CCC(CC(=O)C(=O)O)C(=O)O (stereo not shown) [compound 30] | 0.7 ± 0.11 µM | < 1% |  |  |  |
| O=C(O)C(=O)CC(CCCc1ccccc1)C(=O)O (stereo not shown) [compound 31] | 0.25 ± 0.05 µM | < 1% | > 220 °C (dec.) |  |  |
| O=C(O)C(=O)CC(Cc1ccc2ccccc2c1)C(=O)O (stereo not shown) [compound 33] | 0.17 ± 0.03 µM | < 1% | > 220 °C (dec.) |  | IC50 [1, 5]: 2.5 ± 0.4 µM; IC50 [1, 6]: 3.1 ± 0.3 µM; IC50 [1, 7]: 5.6 µM and ~5.6 µM |
| CC1(C)C(C(=O)O)C1C(=O)C(=O)O (stereo not shown) [compound 35] | ~5.2 µM and 5.2 µM | < 1% |  |  |  |
| O=C(O)C(=O)c1cscc1C(=O)O [compound 37] |  | < 1% |  | did not inhibit | IC50 (inhibition of AspH) ([1]; 50 nM His6-AspH315–758, 1.0 μM hFX-CP101–119, 3 μM 2OG, listed as C00032): Inactive |
| O=C(O)C(=O)c1ccc(C(=O)O)s1 [compound 38] | ~12.9 µM and 12.9 µM | ~15% | > 285 °C (dec.) |  |  |
| O=C(O)C(=O)c1ccccc1C(=O)O [compound 39] |  | < 1% |  | did not inhibit | IC50 (inhibition of AspH) ([1]; 50 nM His6-AspH315–758, 1.0 μM hFX-CP101–119, 3 μM 2OG, listed as C00006): Inactive |
| O=C(O)C(=O)c1cccc(C(=O)O)c1 [compound 40, 3-carboxyphenylglyoxylic acid] |  | < 1% |  | did not inhibit | IC50 (inhibition of AspH) ([1]; 50 nM His6-AspH315–758, 1.0 μM hFX-CP101–119, 3 μM 2OG, listed as C00009): Inactive |
| O=C(O)C(=O)c1ccc(C(=O)O)cc1F [compound 42] |  | ~45% | > 310 °C (dec.) | Inactive |  |
| O=C(O)C(=O)c1ccc(C(=O)O)c(F)c1 [compound 43] |  | ~8% | > 260 °C (dec.) | Inactive |  |
| O=C(O)C(=O)c1ccc(C(=O)O)cc1Br [compound 44] |  | ~20% | > 300 °C (dec.) | Inactive |  |
| O=C(O)C(=O)c1ccc(C(=O)O)c(Br)c1 [compound 45] |  | ~8% |  | Inactive |  |
| Cc1cc(C(=O)O)ccc1C(=O)C(=O)O [compound 46] |  | ~5% | > 320 °C (dec.) | Inactive |  |
| O=C(O)C(=O)C1(C(=O)O)CC1 [compound 48] | ~3.3 µM and 3.3 µM | < 1% |  |  |  |
| CC(C)(NC(=O)C(=O)O)C(=O)O [compound 49, N-oxalyl-α-methylalanine] | ~2.9 µM |  |  |  | IC50 [1, 4]: 2.9 ± 1.3 µM |
